Seven compounds from patent EP4778922A1, “BICYCLIC COMPOUND, AND PREPARATION METHOD THEREFOR AND PHARMACEUTICAL USE THEREOF” (Shanghai Jeyou Pharmaceutical Co., Ltd., priority 2023, dated 2025) can be followed below.

SMILES strings stand for the structures. Read-outs that look alike come from different tables or passages of the source.

For data set [1], the system named is 22RV1 cells. The data set can be described thus: Cell proliferation inhibition assay in 22RV1 cells (CellTiter-Glo, 7 days). The note with it: Homo sapiens, 22Rv1, 168 h. Format: cell-based, human. The method in brief: (§1)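 LNCaP and 22RV1 human prostate cancer cells, 3000 per well, exposed to graded compound for 7 days at 37°C, 5% CO2; LNCaP got 0.2 nM DHT 1 h after compound. Viability by CellTiter-Glo luminescence; IC50 from four-parameter variable-slope fit.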
Background: ATP-based viability assays read luminescence as a measure of living cells.

For data set [2], the target named is T1, CYP2C8 (Homo sapiens, UniProt P10632).
T1 construct: co-incubated with human liver microsomes; from tissue; host or cells: human liver microsomes
T1 sequence (P10632 1-490): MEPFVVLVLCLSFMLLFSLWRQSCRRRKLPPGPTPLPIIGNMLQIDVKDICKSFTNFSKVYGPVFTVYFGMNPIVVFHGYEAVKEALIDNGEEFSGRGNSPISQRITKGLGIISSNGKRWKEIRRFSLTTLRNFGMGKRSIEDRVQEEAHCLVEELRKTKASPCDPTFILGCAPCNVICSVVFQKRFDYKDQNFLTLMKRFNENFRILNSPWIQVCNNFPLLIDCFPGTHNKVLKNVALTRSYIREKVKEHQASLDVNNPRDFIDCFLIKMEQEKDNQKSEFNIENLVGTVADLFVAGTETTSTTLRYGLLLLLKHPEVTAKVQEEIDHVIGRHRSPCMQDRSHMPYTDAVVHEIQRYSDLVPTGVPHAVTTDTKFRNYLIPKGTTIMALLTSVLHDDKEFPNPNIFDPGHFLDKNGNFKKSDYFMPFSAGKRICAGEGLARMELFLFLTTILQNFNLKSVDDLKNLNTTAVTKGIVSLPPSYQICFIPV
The data set can be described thus: CYP inhibition assay in human liver microsomes. Format: in vitro ADME. The note with it: human liver microsomes, NADPH; read-out: CYPs 2C8 (IC50). How it is done: (§2) Test Example 3: CYP Inhibition Assay
(§3) An in vitro assay system was used to evaluate the effects of the compounds on the activities of several human liver microsomal cytochrome P450 (CYP) isozymes (CYP1A2, CYP2C9, CYP2D6, CYP3A4 (testosterone/midazolam), CYP2C19, and CYP2C8). Specific probe substrates for CYP450 isozymes were co-incubated with human liver microsomes and the compound at various concentrations (0, 0.0300, 0.100, 0.300, 1.00, 3.00, 10.0 µM). The reaction was initiated by adding the coenzyme NADPH. After the reaction was completed, the samples were processed, and the metabolites generated from the probe substrates were detected by liquid chromatography-tandem mass spectrometry (LC-MS/MS). Based on the resulting dose-response curves, the IC50 values of the test compounds for the probe substrate reactions catalyzed by each CYP isozyme were calculated.

Data set [3] concerns the target T2, CYP3A4 (testosterone/midazolam) (Homo sapiens, UniProt P08684).
T2 construct: co-incubated with human liver microsomes; from tissue; host or cells: human liver microsomes
The data set can be described thus: CYP inhibition assay in human liver microsomes. The class given is in vitro ADME. On the procedure: as §2, §3
On the technique in general: Liver microsomes are a subcellular fraction often used to study metabolism.

The target of data set [4] is T3, CYP2C9 (Homo sapiens, UniProt P11712).
T3 construct: co-incubated with human liver microsomes; from tissue; host or cells: human liver microsomes
The data set can be described thus: CYP inhibition assay in human liver microsomes. The class given is in vitro ADME. The note with it: human liver microsomes, NADPH; read-out: CYPs 2C9 (IC50). How it is done: as §2, §3

In data set [5] the target is T4, CYP2C19 (Homo sapiens, UniProt P33261).
T4 construct: co-incubated with human liver microsomes; from tissue; host or cells: human liver microsomes
The data set can be described thus: CYP inhibition assay in human liver microsomes. The note with it: human liver microsomes, NADPH; read-out: CYPs 2C19 (IC50). The class given is in vitro ADME. How it is done: as §2, §3

A short description of data set [6]: Mouse pharmacokinetic test. The note with it: plasma; for Tmax: read-out: Tmax. Format: in vivo, ICR mice. The essentials: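 Male naive ICR mice (25–30 g, n=3 per route) received a single intravenous or oral dose, with feeding resumed 4 h post-dose. Blood was centrifuged at 4°C, and plasma was stored at -80°C until analysis.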
In data set [7] the test system is LNCaP cells. The data set can be described thus: Cell proliferation inhibition assay in LNCaP cells (0.2 nM DHT, CellTiter-Glo, 7 days). The class given is cell-based, human. The note with it: Homo sapiens, LNCaP, 168 h. The essentials: as §1
Where [8] appears, read: probe substrate midazolam, read-out: CYPs 3A4 (Midazolam) (IC50).
[9] abbreviates: probe substrate testosterone, read-out: CYPs 3A4 (Testosterone) (IC50).

T3 sequence (P11712 whole entry): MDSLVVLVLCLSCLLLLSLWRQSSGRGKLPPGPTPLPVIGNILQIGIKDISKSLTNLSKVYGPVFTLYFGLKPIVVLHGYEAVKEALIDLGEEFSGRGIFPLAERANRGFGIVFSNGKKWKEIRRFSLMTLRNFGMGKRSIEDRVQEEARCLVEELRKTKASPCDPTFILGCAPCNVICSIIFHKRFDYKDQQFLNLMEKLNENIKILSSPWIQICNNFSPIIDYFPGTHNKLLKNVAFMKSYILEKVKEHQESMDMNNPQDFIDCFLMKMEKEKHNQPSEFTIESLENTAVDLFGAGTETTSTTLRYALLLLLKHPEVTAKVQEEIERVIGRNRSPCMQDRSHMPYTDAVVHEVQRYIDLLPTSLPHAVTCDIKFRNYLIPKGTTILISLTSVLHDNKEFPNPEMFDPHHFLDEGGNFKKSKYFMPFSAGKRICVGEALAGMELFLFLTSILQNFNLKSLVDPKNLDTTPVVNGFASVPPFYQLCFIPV
T4 sequence (P33261 whole entry): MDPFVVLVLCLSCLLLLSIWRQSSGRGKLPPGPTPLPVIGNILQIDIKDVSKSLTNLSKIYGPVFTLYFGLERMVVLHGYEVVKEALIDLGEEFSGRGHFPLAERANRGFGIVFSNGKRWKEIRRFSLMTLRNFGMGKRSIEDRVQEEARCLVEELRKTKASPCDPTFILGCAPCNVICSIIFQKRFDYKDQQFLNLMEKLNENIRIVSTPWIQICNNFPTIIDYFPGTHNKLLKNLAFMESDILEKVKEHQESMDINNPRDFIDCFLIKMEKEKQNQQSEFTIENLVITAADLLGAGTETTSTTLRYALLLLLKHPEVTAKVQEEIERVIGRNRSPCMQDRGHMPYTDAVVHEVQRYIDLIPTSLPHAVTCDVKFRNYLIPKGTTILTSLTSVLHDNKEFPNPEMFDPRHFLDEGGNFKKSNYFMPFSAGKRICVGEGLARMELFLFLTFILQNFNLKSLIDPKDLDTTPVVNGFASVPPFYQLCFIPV
T2 sequence (P08684 whole entry): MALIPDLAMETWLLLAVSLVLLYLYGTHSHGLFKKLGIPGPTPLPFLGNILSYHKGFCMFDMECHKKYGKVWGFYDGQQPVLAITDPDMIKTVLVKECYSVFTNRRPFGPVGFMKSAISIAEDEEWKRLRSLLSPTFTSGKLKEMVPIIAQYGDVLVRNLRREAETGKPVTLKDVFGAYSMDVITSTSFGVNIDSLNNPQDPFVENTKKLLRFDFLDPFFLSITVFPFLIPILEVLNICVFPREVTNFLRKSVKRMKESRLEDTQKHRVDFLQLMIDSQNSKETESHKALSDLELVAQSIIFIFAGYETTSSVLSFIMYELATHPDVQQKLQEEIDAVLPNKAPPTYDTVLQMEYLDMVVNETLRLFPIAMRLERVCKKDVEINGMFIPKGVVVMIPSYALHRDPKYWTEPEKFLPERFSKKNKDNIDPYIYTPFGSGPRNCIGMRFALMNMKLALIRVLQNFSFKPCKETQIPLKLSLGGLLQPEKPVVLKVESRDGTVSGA

Take `CC(C)(c1ccc(-c2ccc(OCc3ccnc(N=S4(=O)CCCC4)n3)cc2)cc1)c1cnc2c(cnn2CCCl)c1` [Compound 46]: the IC50 in data set [1] is 0.59 µM; in data set [2] it was more than 10 µM; in data set [3] (setting [8]), 4.5 µM; in data set [3] (setting [9]), more than 10 µM; in data set [4], 6.7 µM; in data set [5] it was more than 10 µM. In data set [6] (po, 30 mg/kg, PO-30mpk), this compound yielded an AUC(0-inf) of 220 µg·h/mL. Also, the Cmax in data set [6] (po, 30 mg/kg, PO-30mpk) stood at 20700 ng/mL. In data set [6] (po, 30 mg/kg, PO-30mpk), this compound showed a half-life of 3.58 h. For the same compound, the time to peak (Tmax) in data set [6] (po, 30 mg/kg, PO-30mpk) was found to be 4 h.

Take `CC(C)(c1ccc(-c2ccc(OC3CCN(c4ccnc(P(C)(C)=O)n4)CC3)cc2)cc1)c1cc(Cl)c(OCCCl)c(C#N)c1` [Compound 48]: the IC50 in data set [1] was 0.44 µM; in data set [2], 1.7 µM; in data set [3] (setting [8]), more than 10 µM; in data set [3] (setting [9]) it was more than 10 µM; in data set [4], 5.4 µM; in data set [5] it was more than 10 µM. The same compound displayed an area under the curve AUC(0-inf) in data set [6] (po, 30 mg/kg, PO-30mpk) of 358 µg·h/mL. In data set [6] (po, 30 mg/kg, PO-30mpk), the Cmax stood at 13000 ng/mL. In data set [6] (po, 30 mg/kg, PO-30mpk), this compound showed a half-life of 18 h. Besides, in data set [6] (po, 30 mg/kg, PO-30mpk), the Tmax was found to be 4 h.

As for `CC(C)(c1ccc(-c2ccc(OCc3ccnc(N4CC(S(C)(=O)=O)C4)n3)cc2)cc1)c1cc(Cl)c(OCCCl)c(C#N)c1` [Compound 53], the IC50 was 0.28 µM in data set [1]; more than 10 µM in data set [2]; more than 10 µM in data set [3] (setting [8]); more than 10 µM in data set [3] (setting [9]); more than 10 µM in data set [4]; more than 10 µM in data set [5]. Also, the C0 in data set [6] (0.5 mg/kg, IV-0.5mpk) was 2100 ng/mL. The compound also came in with a clearance in data set [6] (0.5 mg/kg, IV-0.5mpk) of 0.59 mL/min/kg. The compound also gave a bioavailability in data set [6] (30 mg/kg, PO-30mpk vs IV-0.5mpk) of 68.4%. Also, the AUC(0-inf) in data set [6] (iv, 0.5 mg/kg, IV-0.5mpk) was found to be 10.2 µg·h/mL; in data set [6] (po, 30 mg/kg, PO-30mpk), 421 µg·h/mL. In addition, the half-life was 33.6 h in data set [6] (iv, 0.5 mg/kg, IV-0.5mpk) and 28.1 h in data set [6] (po, 30 mg/kg, PO-30mpk). In data set [6] (po, 30 mg/kg, PO-30mpk), the Cmax is 13200 ng/mL. Further, in data set [6] (po, 30 mg/kg, PO-30mpk), the Tmax amounted to 4 h.

`CC(C)(c1ccc(-c2ccc(OCc3ccnc(N4CC5(CC(P(C)(C)=O)C5)C4)n3)cc2)cc1)c1cc(Cl)c(OCCCl)c(C#N)c1` [Compound 61]: the IC50 is 0.38 µM in data set [1]; more than 10 µM in data set [2]; more than 10 µM in data set [3] (setting [8]); more than 10 µM in data set [3] (setting [9]); more than 10 µM in data set [4]; more than 10 µM in data set [5]. This compound also returned an AUC(0-inf) in data set [6] (po, 30 mg/kg, PO-30mpk) of 242 µg·h/mL. Further, the concentration in data set [6] (po, 30 mg/kg, PO-30mpk) peaked (Cmax) at 15600 ng/mL. In data set [6] (po, 30 mg/kg, PO-30mpk), the half-life is 7.6 h. In addition, in data set [6] (po, 30 mg/kg, PO-30mpk), the Tmax was 6 h.

For `CC(C)(c1ccc(-c2ccc(OCc3ccnc(N4CCC(S(C)(=O)=O)CC4)n3)cc2)cc1)c1cc(Cl)c(OCCCl)c(C#N)c1` [Compound 94], the IC50 in data set [1] is 0.49 µM; in data set [7], 0.79 µM; in data set [2] it was more than 10 µM; in data set [3] (setting [8]) it was more than 10 µM; in data set [3] (setting [9]) it was more than 10 µM; in data set [4], more than 10 µM. For the same compound, the half-inhibitory concentration (IC50) in data set [5] is more than 10 µM.

As to `CC(C)(c1ccc(-c2ccc(OCc3ccnc(N4CC5(CCS5(=O)=O)C4)n3)cc2)cc1)c1cc(Cl)c(OCCCl)c(C#N)c1` [Compound 176], the IC50 in data set [1] was 0.39 µM; in data set [2], more than 10 µM; in data set [3] (setting [8]), more than 10 µM; in data set [3] (setting [9]), more than 10 µM; in data set [4], more than 10 µM; in data set [5] it was more than 10 µM. Also, the AUC(0-inf) in data set [6] (po, 30 mg/kg, PO-30mpk) was 407 µg·h/mL. In data set [6] (po, 30 mg/kg, PO-30mpk), the peak level (Cmax) was 21300 ng/mL. The same compound gave a half-life in data set [6] (po, 30 mg/kg, PO-30mpk) of 19.6 h. Moreover, the time to peak (Tmax) in data set [6] (po, 30 mg/kg, PO-30mpk) came to 4 h.

`CC(C)(c1ccc(-c2ccc(OCc3ccnc(N4CC5(CCS(=O)(=O)CC5)C4)n3)cc2)cc1)c1cc(Cl)c(OCCCl)c(C#N)c1` [Compound 177]: the IC50 in data set [1] is 0.21 µM; in data set [2], more than 10 µM; in data set [3] (setting [8]) it was more than 10 µM; in data set [3] (setting [9]), more than 10 µM; in data set [4], more than 10 µM; in data set [5] it was more than 10 µM. Also, in data set [6] (po, 30 mg/kg, PO-30mpk), the AUC(0-inf) worked out at 558 µg·h/mL. Besides, the highest concentration (Cmax) in data set [6] (po, 30 mg/kg, PO-30mpk) came out at 17800 ng/mL. In data set [6] (po, 30 mg/kg, PO-30mpk), this compound showed a half-life of 33.7 h. Besides, in data set [6] (po, 30 mg/kg, PO-30mpk), the Tmax worked out at 6 h.

The IC50 is the midpoint of a concentration-inhibition curve. A word on the AUC(0-inf): it is the area under the concentration-time curve extrapolated to infinity. Lower therefore signals less exposure. By Cmax is commonly meant the peak of the concentration-time curve. Broadly, the half-life is the time in which the quantity being followed falls by half. A higher half-life goes with slow loss. Broadly, the Tmax is the time from dosing to the highest level. Broadly, the clearance is the rate of elimination divided by the concentration. In general, bioavailability refers to the share of a dose that reaches the circulation, judged against a reference dose that is usually intravenous. High values mean good availability, low ones poor availability.
